Active and inactive are the calls of the source.
Tests used:
Assay type in all cases: functional, cell-based
HuCC-A1 = assay: Cytotoxicity against human HuCCa1 cells at 50 ug/mL after 72 hrs by MTT assay
MOLT-3 = assay: Cytotoxicity against human MOLT3 cells at 50 ug/mL after 72 hrs by XTT assay
A549 = assay: Cytotoxicity against human A549 cells at 50 ug/mL after 72 hrs by MTT assay
HepG2 = assay: Cytotoxicity against human HepG2 cells at 50 ug/mL after 72 hrs by MTT assay

Measured: Activity

CC1(C)C[C@]2(C)COC(=O)[C@H]3OC(=O)[C@]4(O)CC[C@@H]1C324 (some centres undefined)
inactive: all assays above

Reference: ChEMBL document CHEMBL1811816, “Asperaculin A, a sesquiterpenoid from a marine-derived fungus, Aspergillus aculeatus” (J Nat Prod, 2011)
